Experiments:
CCK2 receptor = biological target: T1, CCK2 receptor (Homo sapiens, UniProt P32239); assay: CCK2 binding assay ([125I]-BH-CCK-8S displacement, HEKZFP membranes); settings: membranes of doxycycline-induced HEKZFP cells, 20 pM [125I]-BH-CCK-8S, 60 min at 21±3° C.; for Ki: read-out: CCK2 pKi (converted)
T1 construct: analyzed for ZFP expression as well as CCK2R induction upon addition of doxycycline to the culture medium; endogenous in cells
T1 sequence (P32239 1-447): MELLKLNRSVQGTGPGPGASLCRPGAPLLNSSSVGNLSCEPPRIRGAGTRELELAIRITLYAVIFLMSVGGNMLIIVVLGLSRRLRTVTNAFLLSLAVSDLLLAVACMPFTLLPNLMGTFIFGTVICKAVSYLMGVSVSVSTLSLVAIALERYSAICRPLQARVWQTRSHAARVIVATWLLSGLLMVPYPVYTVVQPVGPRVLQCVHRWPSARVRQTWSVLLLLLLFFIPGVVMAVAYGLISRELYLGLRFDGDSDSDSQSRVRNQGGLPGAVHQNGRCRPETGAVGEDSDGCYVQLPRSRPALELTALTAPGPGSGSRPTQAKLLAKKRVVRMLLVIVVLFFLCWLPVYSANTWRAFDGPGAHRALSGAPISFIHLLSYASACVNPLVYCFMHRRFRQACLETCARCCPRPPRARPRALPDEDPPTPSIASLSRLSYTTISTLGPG
Method: 2. CCK2 Assay Development and Data Generation
Zinc Finger Proteins (ZFP) specific for the CCK2R gene were identified by Sangamo Biosciences. The ZFP domain was fused with the herpes simplex virus VP16 activation domain, and the fusion protein was subsequently cloned into the pcDNA3 mammalian expression vector (Invitrogen, San Diego, Calif.). […] After 2 weeks of selection in culture medium containing […] Zeocin (Invitrogen), sixty drug-resistant stable clones were isolated and analyzed for ZFP expression as well as CCK2R induction upon addition of doxycycline to the culture medium.
HEKZFP cells were grown in DMEM supplemented with L-glutamine (2 mM), penicillin (50 units/mL) and streptomycin (50 μg/mL) and 10% FBS (v/v).
Membranes were prepared from the HEKZFP cells after induction. […] The thawed pellets were homogenized using a Polytron PT-10 (7×1 s). The homogenates were centrifuged for 5 min at 1500 rpm (600×g), and the resulting pellets were discarded. The supernatants were re-centrifuged in order to collect the receptor-membrane pellets (25 min 15,000 rpm; 39,800×g), which were re-suspended in buffer A.
The assay preparation was incubated for 1 h at 21±3° C., and then the assay was terminated by rapid filtration of the preparation under reduced pressure. The loaded filters were washed three times using undiluted PBS (100 μL), and then 100 μL of scintillation fluid was added to the filter plate. Bound radioactivity was determined using a Topcount (Packard BioScience, Meriden, Conn.) with a count time of 1 min. […] To validate the radioligand concentration and incubation time for the assay, saturation and kinetic binding studies were also conducted (see M. F. Morton, The Pharmacological Characterization of Cholecystokinin Receptors in the Human Gastrointestinal Tract. PhD Thesis, University of London, 2000). […] The assay was then terminated according to the procedure outlined above.
(§1) 3. Data Analysis for CCK1 and CCK2 Binding Assays
The pKi values were determined using the equation of Y.-C.
(§2) [formula] To circumvent problems associated with computer-assisted data analysis of compounds with low affinity, the data obtained in the current study were weighted according to a method described by Morton. In brief, 100% and 0% specific binding were defined independently using total binding and binding obtained in the presence of a high concentration of the reference antagonist, 2-NAP.

CCK-1 receptor = biological target: T2, CCK-1 receptor (Homo sapiens, UniProt P32238); assay: CCK1 binding assay ([125I]-BH-CCK-8S displacement, CHO-K1 membranes); settings: membranes of CHO-K1 cells stably transfected with the CCK-1 receptor, 20 pM [125I]-BH-CCK-8S, 0.3 μM PD-134,308 present, 60 min at 21±3° C.; for Ki: read-out: CCK1 pKi (converted)
T2 construct: expressed in transfected cells; host or cells: CHO-K1
T2 sequence (P32238 1-428): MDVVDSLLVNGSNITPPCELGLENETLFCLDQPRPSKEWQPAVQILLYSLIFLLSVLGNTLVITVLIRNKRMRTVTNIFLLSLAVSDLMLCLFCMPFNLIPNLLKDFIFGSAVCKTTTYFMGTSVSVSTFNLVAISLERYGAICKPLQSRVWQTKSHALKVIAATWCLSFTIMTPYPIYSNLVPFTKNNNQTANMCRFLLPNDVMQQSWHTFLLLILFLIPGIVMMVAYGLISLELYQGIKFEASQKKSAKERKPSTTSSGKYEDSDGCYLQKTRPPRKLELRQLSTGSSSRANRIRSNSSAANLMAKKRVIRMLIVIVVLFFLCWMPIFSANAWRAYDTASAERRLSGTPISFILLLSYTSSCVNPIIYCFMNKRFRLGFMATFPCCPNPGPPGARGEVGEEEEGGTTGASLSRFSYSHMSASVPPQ
Method: 1. CCK1 Assay Development and Data Generation
CHO-K1 cells that had undergone stable transfection with the CCK-1 receptor were grown in DMEM supplemented with L-glutamine (2 mM), penicillin (50 units/mL) and streptomycin (50 μg/mL). Cells were cultured under continuous G418 selection (2 mM) and were harvested using a rubber cell scraper. CHO-K1 cells were sub-cultured a maximum of ten times before being reseeded from the original stocks.
Membranes were prepared from the stably transfected CHO-K1 cells. Frozen cell pellets (−40° C.) were thawed in 14 mL of buffer A (10 mM HEPES, 130 mM NaCl, 4.7 mM KCl, 5 mM MgCl, 1 mM EGTA and 15.4 mg/100 mL bacitracin at pH 7.2), adapted from Harper et al. (Br. J. Pharmacol. 1996, 118:1717-1726). The thawed pellets were homogenized using a Polytron PT-10 (7×1 s). The homogenates were centrifuged for 5 min at 1500 rpm (600×g), and the resulting pellets were discarded. The supernatants were re-centrifuged in order to collect the receptor-membrane pellets (25 min 15,000 rpm; 39,800×g), which were re-suspended in buffer A.
All assays were conducted in 96-well plates (GF/B millipore filter plates) using buffer A, with 0.3 μM PD-134,308, for the dilutions. The CCK-2 receptor ligand was included to eliminate the contribution of this receptor subtype to the binding. For the optimal cell number determination experiments 20 pM [^125I]-BH-CCK-8S (50 μL […] solution) was incubated with a range of cell concentrations ([…] to 12.5×10^5 cells/well) in a total volume of 150 μL. Total binding of [^125I]-BH-CCK-8S was determined in the presence of 15 μL of buffer A. Non-specific binding of [^125I]-BH-CCK-8S was determined in the presence of 15 μL of 100 μM 2-naphthalenesulphonyl L-aspartyl-(2-phenethyl)amide (2-NAP: see R. A. Hull et al. Br. J. Pharmacol. 1993, 108:734-740), a CCK-1 receptor selective antagonist that is structurally unrelated to the radioligand [^125I]-BH-CCK-8S. The assay preparation was incubated for 1 h at 21±3° C., and then the assay was terminated upon rapid filtration of the preparation under reduced pressure. The loaded filters were washed three times using undiluted PBS ([…]), and then the residues were transferred to 5 mL scintillation tubes. Bound radioactivity was determined using a gamma counter (count time=1 min). […] To validate the radioligand concentration and incubation time for the assay, saturation and kinetic binding studies were also conducted (see M. F. Morton, The Pharmacological Characterization of Cholecystokinin Receptors in the Human Gastrointestinal Tract. PhD Thesis, University of London, 2000). […] The assay was then terminated according to the procedure outlined above.
as §1
The pKi values were determined using the equation of Y.-C. Cheng and W. H. Prusoff (Biochem. Pharmacol., 1973, 22(23):3099-3108):
as §2

Row | Ki (CCK2 receptor) [nM] | Ki (CCK-1 receptor) [nM] | CCK2 pKi (CCK2 receptor) | CCK1 pKi (CCK-1 receptor) | SMILES
1 | 200 | 200 |  |  | COC(=O)[C@H](Cc1ccc(F)c(Br)c1)NC(=O)c1ccc(Cl)cc1NS(=O)(=O)c1cccc2nsnc12 [Example 149, (S)-2-[2-(Benzo[1,2,5]thiadiazole-4-sulfonylamino)-4-chloro-benzoylamino]-3-(3-bromo-4-fluoro-phenyl)-propionic acid methyl ester]
2 | 200 | 158 |  |  | COC(=O)[C@H](Cc1ccc(F)c(Br)c1)NC(=O)c1ccc(Br)cc1NS(=O)(=O)c1cccc2nsnc12 [Example 143, (S)-2-[2-(Benzo[1,2,5]thiadiazole-4-sulfonylamino)-4-bromo-benzoylamino]-3-(3-bromo-4-fluoro-phenyl)-propionic acid methyl ester]
3 | 50.1 | 631 |  |  | O=C(N[C@@H](Cc1ccc(Cl)cc1Cl)C(=O)O)c1ccc(Br)cc1NS(=O)(=O)c1c(F)cccc1F [Example 41, 2-[4-Bromo-2-(2,6-difluoro-benzenesulfonylamino)-benzoylamino]-3-(2,4-dichloro-phenyl)-propionic acid]
4 | 631 | 501 |  |  | CC(Cc1ccc(Cl)cc1)NC(=O)c1ccc(C(F)(F)F)cc1NS(=O)(=O)c1cccc2nsnc12 (stereo not drawn) [Example 22, 2-(Benzo[1,2,5]thiadiazole-4-sulfonylamino)-N-[2-(4-chloro-phenyl)-1-methyl-ethyl]-4-trifluoromethyl-benzamide]
5 | 63.1 | 1580 |  |  | O=C(N[C@H](Cc1ccc(Cl)cc1Cl)C(=O)O)c1ccc(Cl)cc1NS(=O)(=O)c1c(F)cccc1F [Example 46, 2-[4-Chloro-2-(2,6-difluoro-benzenesulfonylamino)-benzoylamino]-3-(2,4-dichloro-phenyl)-propionic acid]
6 |  |  | 8.3 | 6.8 | O=C(N[C@@H](Cc1ccc(F)c(Br)c1)C(=O)O)c1ccc(I)cc1NS(=O)(=O)c1cccc2nsnc12 [Example 93, (S)-2-[2-(Benzo[1,2,5]thiadiazole-4-sulfonylamino)-4-iodo-benzoylamino]-3-(3-bromo-4-fluoro-phenyl)-propionic acid]
7 | 316 | 126 |  |  | O=C(N[C@@H](Cc1ccc(Cl)c(Cl)c1)C(=O)N1CCCCC1)c1ccc(Cl)cc1NS(=O)(=O)c1cccc2nsnc12 [Example 140, (S)-2-(Benzo[1,2,5]thiadiazole-4-sulfonylamino)-4-chloro-N-[1-(3,4-dichloro-benzyl)-2-oxo-2-piperidin-1-yl-ethyl]-benzamide]
8 |  |  | 8.3 | 6.5 | O=C(N[C@@H](Cc1ccc(F)c(Br)c1)C(=O)O)c1ccc(Br)cc1NS(=O)(=O)c1cccc2nccnc12 [Example 158, (S)-3-(3-Bromo-4-fluoro-phenyl)-2-[4-bromo-2-(quinoxaline-5-sulfonylamino)-benzoylamino]-propionic acid]
9 | 501 | 12.6 |  |  | CC(CNC(=O)c1ccc(Cl)cc1NS(=O)(=O)c1cccc2nsnc12)c1ccc(Cl)c(Cl)c1 (racemic) [Example 57, (±)-2-(Benzo[1,2,5]thiadiazole-4-sulfonylamino)-4-chloro-N-[2-(3,4-dichloro-phenyl)-propyl]-benzamide]
10 | 63.1 | 7940 |  |  | O=C(O)C[C@H](Cc1ccc(Cl)cc1)NC(=O)c1ccc(Cl)cc1NS(=O)(=O)c1cccc2nccnc12 [Example 89, (S)-4-(4-Chloro-phenyl)-3-[4-chloro-2-(quinoxaline-5-sulfonylamino)-benzoylamino]-butyric acid]
11 | 1580 | 100 |  |  | O=C(NCCc1ccc(Br)cc1)c1ccc(Cl)cc1NS(=O)(=O)c1c(F)cccc1F [Example 80, N-[2-(4-Bromo-phenyl)-ethyl]-4-chloro-2-(2,6-difluoro-benzenesulfonylamino)-benzamide]
12 | 251 | 158 |  |  | COC(=O)[C@H](Cc1ccc(Cl)c(Cl)c1)NC(=O)c1ccc(I)cc1NS(=O)(=O)c1cccc2nsnc12 [Example 154, (S)-2-[2-(Benzo[1,2,5]thiadiazole-4-sulfonylamino)-4-iodo-benzoylamino]-3-(3,4-dichloro-phenyl)-propionic acid methyl ester]
13 | 5010 | 100 |  |  | CC(CNC(=O)c1ccc(I)cc1NS(=O)(=O)c1c(F)cccc1F)c1ccc(Cl)cc1Cl (stereo not drawn) [Example 47, N-[2-(2,4-Dichloro-phenyl)-propyl]-2-(2,6-difluoro-benzenesulfonylamino)-4-iodo-benzamide]
14 |  | 158 |  |  | C[C@@H](NC(=O)c1ccc(Cl)cc1NS(=O)(=O)c1cccc2nsnc12)C(O)(c1ccccc1)c1ccccc1 [Example 73, (R)-2-(Benzo[1,2,5]thiadiazole-4-sulfonylamino)-4-chloro-N-(2-hydroxy-1-methyl-2,2-diphenyl-ethyl)-benzamide]

From patent publication US7855292B2, “Sulfonamide compounds” (Janssen Pharmaceutica NV, priority 2004, dated 2010)
